Assay results reported in ChEMBL document CHEMBL3425446, “Isolation, semi-synthesis and bio-evaluation of spatane derivatives from the brown algae Stoechospermum marginatum” (Bioorg Med Chem Lett, 2015).
≈ marks a conversion by molar mass, not a printed value. Calls of active or inactive are those of the source. The calls are words filed in the database; no cut-off is given here.

Key:
Escherichia coli [1] = test: Antibacterial activity against Escherichia coli assessed as growth inhibition at 0.5 mg/ml after 24 hrs by well diffusion method; type: functional; settings: read-out: DIZ
Bacillus subtilis [2] = test: Antibacterial activity against Bacillus subtilis assessed as growth inhibition at 0.5 mg/ml after 24 hrs by well diffusion method; type: functional; settings: read-out: DIZ
Micrococcus luteus [3] = test: Antibacterial activity against Micrococcus luteus assessed as growth inhibition at 0.5 mg/ml after 24 hrs by well diffusion method; type: functional; settings: read-out: DIZ
Klebsiella pneumoniae [4] = test: Antibacterial activity against Klebsiella pneumoniae assessed as growth inhibition at 0.5 mg/ml after 24 hrs by well diffusion method; type: functional; settings: read-out: DIZ
Escherichia coli [5] = test: Antibacterial activity against Escherichia coli assessed as compound concentration required to complete growth inhibition at 8 hrs by tube dilution method; type: functional
Bacillus subtilis [6] = test: Antibacterial activity against Bacillus subtilis assessed as compound concentration required to complete growth inhibition at 8 hrs by tube dilution method; type: functional
Micrococcus luteus [7] = test: Antibacterial activity against Micrococcus luteus assessed as compound concentration required to complete growth inhibition at 8 hrs by tube dilution method; type: functional
Klebsiella pneumoniae [8] = test: Antibacterial activity against Klebsiella pneumoniae assessed as compound concentration required to complete growth inhibition at 8 hrs by tube dilution method; type: functional
THP-1 [9] = test: Cytotoxicity against human THP1 cells assessed as decrease in cell number after 24 hrs by MTT assay; type: functional, cell-based; settings: THP-1, 24 h
[10] = Cytotoxicity against mouse B16F10 cells assessed as decrease in cell number after 24 hrs by MTT assay; type: functional, cell-based; settings: B16-F10, 24 h
COLO 205 [11] = test: Cytotoxicity against human COLO205 cells assessed as decrease in cell number after 24 hrs by MTT assay; type: functional, cell-based; settings: COLO 205, 24 h
U-937 = test: Cytotoxicity against human U937 cells assessed as growth inhibition at 200 ug/ml after 24 hrs by MTT assay; type: functional, cell-based
HL-60 = test: Cytotoxicity against human HL60 cells assessed as growth inhibition at 200 ug/ml after 24 hrs by MTT assay; type: functional, cell-based
THP-1 [12] = test: Cytotoxicity against human THP1 cells assessed as growth inhibition at 200 ug/ml after 24 hrs by MTT assay; type: functional, cell-based
COLO 205 [13] = test: Cytotoxicity against human COLO205 cells assessed as growth inhibition at 200 ug/ml after 24 hrs by MTT assay; type: functional, cell-based
[14] = Cytotoxicity against human U937 cells assessed as decrease in cell number after 24 hrs by MTT assay; type: functional, cell-based; settings: U-937, 24 h
B16-F10 = test: Cytotoxicity against mouse B16F10 cells assessed as growth inhibition at 200 ug/ml after 24 hrs by MTT assay; type: functional, cell-based

Row | MIC (Escherichia coli [5]) [µg/mL] | MIC (Bacillus subtilis [6]) [µg/mL] | MIC (Micrococcus luteus [7]) [µg/mL] | MIC (Klebsiella pneumoniae [8]) [µg/mL] | SMILES | zone of inhibition at 500 µg/mL (Escherichia coli [1]) [mm] | zone of inhibition at 500 µg/mL (Bacillus subtilis [2]) [mm] | zone of inhibition at 500 µg/mL (Micrococcus luteus [3]) [mm] | zone of inhibition at 500 µg/mL (Klebsiella pneumoniae [4]) [mm] | IC50 (THP-1 [9]) [µg/mL] | IC50 [10] [µg/mL] | IC50 (COLO 205 [11]) [µg/mL] | growth inhibition (GI) (U-937) | growth inhibition (GI) (HL-60) | growth inhibition (GI) (THP-1 [12]) | growth inhibition (GI) (COLO 205 [13]) | IC50 [14] [µg/mL] | growth inhibition (GI) (B16-F10)
1 | 200 | 200 | 200 | 200 | C=C(C(O)/C=C/C(C)(O)CO)[C@@H]1C[C@@H](O)[C@@]2(C)[C@@H]1[C@@H]1[C@H](C)CC[C@@H]12 (mixture of isomers) | 11.7 | 12.7 | 12.3 | 12.3 | 55.6 | 196 | 17.4 | inactive | inactive | – | – | – | –
2 | 100 | 100 | 100 | 200 | C=C(C(/C=C/C(C)(O)COC(C)=O)OC(C)=O)[C@@H]1C[C@@H](O)[C@@]2(C)[C@@H]1[C@@H]1[C@H](C)CC[C@@H]12 (mixture of isomers) | 14.3 | 11.7 | 12.3 | 12.7 | – | 82 | – | inactive | inactive | inactive | inactive | – | –
3 | 200 (≈ 666 µM) | 400 (≈ 1330 µM) | 200 (≈ 666 µM) | 200 (≈ 666 µM) | C=C(CC(=O)C=C(C)C)[C@@H]1CC(=O)[C@@]2(C)[C@@H]1[C@@H]1[C@H](C)CC[C@@H]12 | 10 | 0 | 11.3 | 12.7 | 113 (≈ 377 µM) | – | 167 (≈ 557 µM) | – | inactive | – | – | 47.5 (≈ 158 µM) | inactive
